Test results as given in patent US10752624B2, “Kinase inhibitors” (Origenis GmbH, priority 2012, dated 2020).

Biological target: LRRK2 (Homo sapiens, UniProt Q5S007)
Test: LRRK2-LRRK2 G2019S-Assay (LanthaScreen Eu Kinase Binding Assay)
Settings: 5 nM LRRK2, 10 nM tracer 236, 2 nM EU-Anti-GST antibody, 1 h at RT; read-out: LRRK2 Activities: IC50
Protocol: In the assay LanthaScreen™ Eu Kinase Binding Assay by Invitrogen Corporation (Carlsbad) the effect of invention of a compound on the phosphorylation is determined by measurement of fluorescence intensity emission ratio based on the binding and displacement of a proprietary, Alexa Fluor® 647-labeled, ATP-competitive kinase inhibitor scaffold (kinase tracer) to the kinase of interest. Binding of the tracer to the kinase is detected using a europium-labeled anti-tag antibody, which binds to the kinase of interest. Simultaneous binding of both the tracer and antibody to the kinase results in a high degree of FRET (fluorescence resonance energy transfer) from the europium (Eu) donor fluorophore to the Alexa Fluor® 647 acceptor fluorophore on the kinase tracer. Binding of an inhibitor to the kinase competes for binding with the tracer, resulting in a loss of FRET. The fluorescence intensity ratio is directly proportional to the amount of peptide phosphorylation.
To the wells of an 384 well small volume plate (Greiner, Frickenhausen) are added (i) the compound under test in 5% DMSO/distilled water (5 μl), (ii) 5 μl of the kinase antibody mixture resulting in a final concentration 5 nM LRRK2 or their mutants, 2 nM EU-Anti-GST antibody in 1× kinase buffer A. The reaction was started with addition of (iii) 5 μl resulting in a final concentration of 10 nM tracer 236. The assay plate was incubated at RT for 1 h and fluorescence intensity readings were collected using a TECAN M1000 at two wavelengths of λex 340/λem 615 nm and λex 340/λem 665 nm with a delay time of 100 μs and an integration time of 200 μs after 60 minutes. The emission ratio was calculated by division of the acceptor/tracer emission ([…]) by the antibody/donor emission ([…]). The inhibitor concentration was plotted versus the emission ratio to determine the IC50 using XLFit 5.0 (IDBS, Guildford) to fit to a sigmoidal dose response curve with a variable slope.

Sequence of LRRK2 (Q5S007 970-2527 limits assumed): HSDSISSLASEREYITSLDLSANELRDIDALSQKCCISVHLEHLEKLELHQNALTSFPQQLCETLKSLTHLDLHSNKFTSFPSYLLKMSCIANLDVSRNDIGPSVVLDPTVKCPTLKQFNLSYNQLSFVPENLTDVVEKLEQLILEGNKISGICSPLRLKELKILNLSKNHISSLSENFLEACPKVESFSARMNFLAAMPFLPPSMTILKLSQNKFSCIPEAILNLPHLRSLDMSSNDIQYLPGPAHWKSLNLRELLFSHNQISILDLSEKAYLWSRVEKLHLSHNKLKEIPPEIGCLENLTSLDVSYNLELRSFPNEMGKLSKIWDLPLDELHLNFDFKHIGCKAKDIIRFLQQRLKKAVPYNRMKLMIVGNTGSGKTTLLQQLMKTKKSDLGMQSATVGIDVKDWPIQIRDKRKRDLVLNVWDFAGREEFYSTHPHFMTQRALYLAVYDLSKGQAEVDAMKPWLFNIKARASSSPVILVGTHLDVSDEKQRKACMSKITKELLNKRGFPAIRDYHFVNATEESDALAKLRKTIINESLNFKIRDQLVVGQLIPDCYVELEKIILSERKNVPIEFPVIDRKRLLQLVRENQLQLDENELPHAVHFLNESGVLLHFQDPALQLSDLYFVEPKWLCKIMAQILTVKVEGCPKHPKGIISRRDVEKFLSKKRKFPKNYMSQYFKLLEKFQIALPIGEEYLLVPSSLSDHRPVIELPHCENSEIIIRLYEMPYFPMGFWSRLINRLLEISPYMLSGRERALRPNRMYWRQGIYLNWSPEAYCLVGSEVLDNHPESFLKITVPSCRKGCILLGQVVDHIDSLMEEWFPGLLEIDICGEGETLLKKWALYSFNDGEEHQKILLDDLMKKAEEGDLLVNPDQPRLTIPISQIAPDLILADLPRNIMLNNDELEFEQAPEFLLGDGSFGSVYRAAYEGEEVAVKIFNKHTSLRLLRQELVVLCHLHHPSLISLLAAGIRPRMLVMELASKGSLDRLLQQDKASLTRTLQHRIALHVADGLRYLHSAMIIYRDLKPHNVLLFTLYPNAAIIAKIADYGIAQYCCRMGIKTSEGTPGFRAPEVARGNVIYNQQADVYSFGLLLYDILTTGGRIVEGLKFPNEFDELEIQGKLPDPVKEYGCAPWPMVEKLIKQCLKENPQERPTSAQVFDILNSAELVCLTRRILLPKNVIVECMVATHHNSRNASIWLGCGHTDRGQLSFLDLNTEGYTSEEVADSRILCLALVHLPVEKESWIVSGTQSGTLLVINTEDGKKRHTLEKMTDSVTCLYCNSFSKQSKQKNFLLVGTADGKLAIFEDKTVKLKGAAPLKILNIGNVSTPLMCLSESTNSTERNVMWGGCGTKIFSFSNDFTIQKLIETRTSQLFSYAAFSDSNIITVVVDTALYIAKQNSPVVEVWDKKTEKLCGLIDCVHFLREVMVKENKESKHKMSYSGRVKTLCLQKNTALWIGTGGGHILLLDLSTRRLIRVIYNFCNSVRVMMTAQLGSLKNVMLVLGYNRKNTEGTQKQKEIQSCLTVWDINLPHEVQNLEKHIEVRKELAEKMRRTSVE

| Structure (SMILES) | IC50 [nM] |
| --- | --- |
| COc1ccc2nc(Nc3cccc(CN4CCOCC4)c3)c3n[nH]cc3c2c1 [Example 23, 8-methoxy-N-(3-(morpholinomethyl)phenyl)-2H-pyrazolo[3,4-c]quinolin-4-amine] | 100 to 1000 |
| COc1ccc2nc(Nc3ccc(-c4nnc(S)o4)cc3)c3n[nH]cc3c2c1 [Example 84, 5-(4-((8-methoxy-2H-pyrazolo[3,4-c]quinolin-4-yl)amino)phenyl)-1,3,4-oxadiazole-2-thiol] | 10 to 100 |
| Fc1cccc2nc(Nc3ccc(N4CCOCC4)nc3)c3[nH]ncc3c12 [Example 11, 9-fluoro-N-(6-morpholinopyridin-3-yl)-3H-pyrazolo[3,4-c]quinolin-4-amine] | 100 to 1000 |
| COCCn1cc(Nc2nc3cccc(OC)c3c3c[nH]nc23)cn1 [Example 156, 9-methoxy-N-(1-(2-methoxyethyl)-1H-pyrazol-4-yl)-2H-pyrazolo[3,4-c]quinolin-4-amine] | < 10 |
| COc1cccc2nc(Nc3ccc(C(=O)N4CCN(C)CC4)cc3)c3[nH]ncc3c12 [Example 69, (4-((9-methoxy-3H-pyrazolo[3,4-c]quinolin-4-yl)amino)phenyl)(4-methylpiperazin-1-yl)methanone] | 10 to 100 |
| COc1ccc2nc(Nc3ccc(N4CCN(C(C)=O)CC4)nc3)c3n[nH]cc3c2c1 [Example 91, 1-(4-(5-((8-methoxy-2H-pyrazolo[3,4-c]quinolin-4-yl)amino)pyridin-2-yl)piperazin-1-yl)ethan-1-one] | 100 to 1000 |
| COc1ccc2nc(Nc3cnn(C(C)c4ccccc4)c3)c3n[nH]cc3c2c1 (stereo not shown) [Example 320, 8-methoxy-N-(1-(1-phenylethyl)-1H-pyrazol-4-yl)-2H-pyrazolo[3,4-c]quinolin-4-amine] | 100 to 1000 |
| COc1ccc2nc(Nc3cccc(CN(C)C)c3)c3n[nH]cc3c2c1 [Example 5, N-(3-((dimethylamino)methyl)phenyl)-8-methoxy-2H-pyrazolo[3,4-c]quinolin-4-amine] | 100 to 1000 |
| COc1ccc2nc(Nc3ccc(N4CCC(N5CCN(C)CC5)CC4)nc3)c3n[nH]cc3c2c1 [Example 96, 8-methoxy-N-(6-(4-(4-methylpiperazin-1-yl)piperidin-1-yl)pyridin-3-yl)-2H-pyrazolo[3,4-c]quinolin-4-amine] | 100 to 1000 |
| COc1ccc2nc(Nc3cnn(C4CCN(C)CC4)c3)c3n[nH]cc3c2c1 [Example 111, 8-methoxy-N-(1-(1-methylpiperidin-4-yl)-1H-pyrazol-4-yl)-2H-pyrazolo[3,4-c]quinolin-4-amine] | 10 to 100 |
| COc1cccc2nc(Nc3ccc(N4CCOCC4)c(C#N)c3)c3[nH]ncc3c12 [Example 71, 5-((9-methoxy-3H-pyrazolo[3,4-c]quinolin-4-yl)amino)-2-morpholinobenzonitrile] | 10 to 100 |
| COc1ccc2nc(Nc3cccc(C(=O)N4CCOCC4)c3)c3n[nH]cc3c2c1 [Example 7, (3-((8-methoxy-2H-pyrazolo[3,4-c]quinolin-4-yl)amino)phenyl)(morpholino)methanone] | 100 to 1000 |
| CCN1C(=O)COc2ccc(Nc3nc4ccc(OC)cc4c4c[nH]nc34)cc21 [Example 318, 4-ethyl-6-((8-methoxy-2H-pyrazolo[3,4-c]quinolin-4-yl)amino)-2H-benzo[b][1,4]oxazin-3(4H)-one] | 100 to 1000 |
| COc1cccc2nc(Nc3ccc(C(=O)N4CCCC4)cc3)c3[nH]ncc3c12 [Example 61, (4-((9-methoxy-3H-pyrazolo[3,4-c]quinolin-4-yl)amino)phenyl)(pyrrolidin-1-yl)methanone] | 10 to 100 |
| COc1cccc2nc(Nc3cc(C4CC4)[nH]n3)c3n[nH]cc3c12 [Example 26, N-(5-cyclopropyl-1H-pyrazol-3-yl)-9-methoxy-3H-pyrazolo[3,4-c]quinolin-4-amine] | 10 to 100 |
| COc1cc(Nc2nc3cccc(OC)c3c3cn[nH]c23)ccc1N1CCOCC1 [Example 16, 9-methoxy-N-(3-methoxy-4-morpholinophenyl)-3H-pyrazolo[3,4-c]quinolin-4-amine] | 10 to 100 |
| COc1ccc2nc(Nc3cnn(C4CCN(C(C)=O)CC4)c3)c3n[nH]cc3c2c1 [Example 112, 1-(4-(4-((8-methoxy-2H-pyrazolo[3,4-c]quinolin-4-yl)amino)-1H-pyrazol-1-yl)piperidin-1-yl)ethan-1-one] | 10 to 100 |
| Fc1cccc2c1nc(Nc1ccc(N3CCOCC3)cc1)c1[nH]ncc12 [Example 50, 6-fluoro-N-(4-morpholinophenyl)-3H-pyrazolo[3,4-c]quinolin-4-amine] | 100 to 1000 |
| CN1CCN(C2CCN(c3ccc(Nc4nc5cccc(S(C)(=O)=O)c5c5cn[nH]c45)cc3)CC2)CC1 [Example 97, N-(4-(4-(4-methylpiperazin-1-yl)piperidin-1-yl)phenyl)-9-(methylsulfonyl)-3H-pyrazolo[3,4-c]quinolin-4-amine] | 100 to 1000 |
| COc1cccc2nc(Nc3ccc(N4CCN(C(C)(C)C)CC4)cc3)c3[nH]ncc3c12 [Example 38, N-(4-(4-(tert-butyl)piperazin-1-yl)phenyl)-9-methoxy-3H-pyrazolo[3,4-c]quinolin-4-amine] | 10 to 100 |

The remaining lines, values ahead:

| IC50 [nM] | Structure (SMILES) |
| --- | --- |
| 100 to 1000 | COc1cccc2nc(Nc3cccc(CN(C)C)c3)c3[nH]ncc3c12 [Example 28, N-(3-((dimethylamino)methyl)phenyl)-9-methoxy-3H-pyrazolo[3,4-c]quinolin-4-amine] |
| 100 to 1000 | COc1ccc(Nc2nc3ccc(C)cc3c3cn[nH]c23)cc1OC [Example 72, N-(3,4-dimethoxyphenyl)-8-methyl-3H-pyrazolo[3,4-c]quinolin-4-amine] |
| 10 to 100 | COc1cccc2nc(Nc3ccc(N4CCN(S(C)(=O)=O)CC4)cc3)c3[nH]ncc3c12 [Example 59, 9-methoxy-N-(4-(4-(methylsulfonyl)piperazin-1-yl)phenyl)-3H-pyrazolo[3,4-c]quinolin-4-amine] |
| 100 to 1000 | COc1ccc2nc(Nc3cn(C)nc3C)c3n[nH]cc3c2c1 [Example 105, N-(1,3-dimethyl-1H-pyrazol-4-yl)-8-methoxy-2H-pyrazolo[3,4-c]quinolin-4-amine] |
| < 10 | Cc1nn(C(C)C)cc1Nc1nc2ccc(S(C)(=O)=O)cc2c2cn[nH]c12 [Example 213, N-(1-isopropyl-3-methyl-1H-pyrazol-4-yl)-8-(methylsulfonyl)-3H-pyrazolo[3,4-c]quinolin-4-amine] |
| < 10 | Cc1c(Nc2nc3ccc(S(C)(=O)=O)cc3c3cn[nH]c23)cnn1C(C)C [Example 214, N-(1-isopropyl-5-methyl-1H-pyrazol-4-yl)-8-(methylsulfonyl)-3H-pyrazolo[3,4-c]quinolin-4-amine] |
| 10 to 100 | COc1cccc2nc(Nc3cn(C(C)C)nc3C)c3[nH]ncc3c12 [Example 222, N-(1-isopropyl-3-methyl-1H-pyrazol-4-yl)-9-methoxy-3H-pyrazolo[3,4-c]quinolin-4-amine] |
| 100 to 1000 | CS(=O)(=O)c1ccc2c(c1)nc(Nc1ccc(C(=O)N3CCOCC3)c(F)c1)c1[nH]ncc12 [Example 174, (2-fluoro-4-((7-(methylsulfonyl)-3H-pyrazolo[3,4-c]quinolin-4-yl)amino)phenyl)(morpholino)methanone] |
| 100 to 1000 | Cn1nc(C2CC2)cc1Nc1nc2ccc(S(C)(=O)=O)cc2c2cn[nH]c12 [Example 239, N-(3-cyclopropyl-1-methyl-1H-pyrazol-5-yl)-8-(methylsulfonyl)-3H-pyrazolo[3,4-c]quinolin-4-amine] |
| 10 to 100 | CCN1C(=O)COc2ccc(Nc3nc4ccc(S(C)(=O)=O)cc4c4c[nH]nc34)cc21 [Example 342, 4-ethyl-6-((8-(methylsulfonyl)-2H-pyrazolo[3,4-c]quinolin-4-yl)amino)-2H-benzo[b][1,4]oxazin-3(4H)-one] |
| 10 to 100 | COc1cccc2nc(Nc3ccc4c(c3)S(=O)(=O)C=C4)c3[nH]ncc3c12 [Example 20, 6-((9-methoxy-3H-pyrazolo[3,4-c]quinolin-4-yl)amino)benzo[b]thiophene 1,1-dioxide] |
| 10 to 100 | COCCn1cc(Nc2nc3ccc(S(C)(=O)=O)cc3c3cn[nH]c23)c(C(F)(F)F)n1 [Example 271, N-(1-(2-methoxyethyl)-3-(trifluoromethyl)-1H-pyrazol-4-yl)-8-(methylsulfonyl)-3H-pyrazolo[3,4-c]quinolin-4-amine] |
| 10 to 100 | Cc1nn(C2CCOCC2)cc1Nc1nc2ccc(S(C)(=O)=O)cc2c2cn[nH]c12 [Example 216, N-(3-methyl-1-(tetrahydro-2H-pyran-4-yl)-1H-pyrazol-4-yl)-8-(methylsulfonyl)-3H-pyrazolo[3,4-c]quinolin-4-amine] |
| 100 to 1000 | CS(=O)(=O)c1cccc2nc(Nc3ccc(C(=O)N4CCOCC4)cc3)c3[nH]ncc3c12 [Example 94, (4-((9-(methylsulfonyl)-3H-pyrazolo[3,4-c]quinolin-4-yl)amino)phenyl)(morpholino)methanone] |
